The source of these data is US20250228863A1, “Methods and Products to Screen and Treat Glioblastoma Multiforme and Other Cancers, Including Breast Cancers, Using A Combination of PI3KINASE Inhibitors With Checkpoint Inhibitors” (GLOBAL CANCER TECHNOLOGY, INC., priority 2022, published 2025).

One data set relates to MCF7 SEMA7A OE cells. Briefly: MCF7 EV and SEMA7A over-expressing cells treated with endocrine therapy and/or PI3K inhibitor. It counts as cell-based, human. On the procedure: Cell Culture Protocol: Cells were plated in 10 cm plates at ˜1 million cells/plate and incubated overnight to allow adherence. Cell lines and media that were used included McCoy's 5a modified media for HER2+ breast cancer cell line SKBR3 cells, and for MDA-MB-231, MDA-MB-468, MCF-7, and HS578t, culture medium was DMEM. Cells were then treated with the PI3K inhibitor: 0 uM (control), 1 uM, or 10 uM. Treated cells incubated for ˜72 hours. After incubation, cells were imaged, then harvested with 0.25% trypsin/EDTA and counted using trypan blue viability stain with Nexcelom Cellometer Mini. The MDA-MB-231 cell line is an epithelial, human breast cancer cell line that was established from a pleural effusion of a patient with metastatic mammary adenocarcinoma.
FIG. 13A, FIG. 13B, and FIG. 13C. […] MCF7EV and SEMA7A OE cells were treated for 48 hours with A) fulvestrant (7.5 nM), B} Alpelisib (1 uM), or C) the combination.
FIG. 14A, FIG. 14B, FIG. 14C, FIG. 14D, and FIG. 14E. SEMA7A-expressing cells are sensitive to both Alpelisib and a novel PI3K inhibitor (GCT.BR.1) FIG. 14A) MCF7 cells treated with vehicle, 1 uM Alpelisib and 1 uM GCT.BR.1. Scalebar=10 microns. FIG. 14B) Quantification of A. FIG. 14C) MCF7 S7 OE spheroids in suspension were treated with vehicle (DMSO), 1 uM Alpelisib or 0.5 uM GCT and stained with Calcein green viability dye after 48 h. […]

For data set [1] the following is noted: orally available; literature statement; cited from earlier work.

For the compound `C[C@]12CC[C@@H]3c4ccc(O)cc4C[C@@H](CCCCCCCCC[S+]([O-])CCCC(F)(F)C(F)(F)F)[C@H]3[C@@H]1CC[C@@H]2O` (stereo partly drawn) [fulvestrant], the “response of SEMA7A over-expressing cells to treatment” value with MCF7 SEMA7A OE cells (48 hours, fulvestrant 7.5 nM, Alpelisib 1 uM, FIG. 13) is listed as “respond poorly”. Consider `Cc1nc(NC(=O)N2CCC[C@H]2C(N)=O)sc1-c1ccnc(C(C)(C)C(F)(F)F)c1` [Alpelisib], for which the “sensitivity of SEMA7A-expressing cells” value in the data set with MCF7 SEMA7A OE cells (MCF7, 1 uM, FIG. 14) was “sensitive”.

For the compound `CC1(C)OCCn2c1nc1c(N3CCOCC3)nc(-c3cnc(N)nc3)nc12` [GDC 0084], in data set [1], the “blood brain barrier permeation” value is listed as “can permeate the blood brain barrier”.
